One assay concerns p61-A375 (pERK). Kind of assay: ERK phosphorylation inhibition IC50 assay in p61-A375. The assay is classed as cell-based. The settings on record: 1 hour compound treatment. Here is the method: (§1) To express p61 in mammalian cells, cDNA encoding the p61 (Poulikakos et al., Nature. 2011 Nov. 23; 480(7377):387-90) was synthesized by Genscript and cloned into pLVX-IRES-Puro vector (Clontech). The cDNA was a modified form of p61 in which sequencing encoding the flag-epitope had been inserted to the C-terminus, resulting in the expression of flag-tagged forms of protein. A375 cells were stably transfected with the Flag-p61 expressing plasmid and selected with DMEM containing […] puromycin (Invitrogen). Cells were cloned by limiting dilution in a 96-wells plate and the clones screened by western blot analysis using a monoclonal antibody directed against the flag-epitope.
(§2) Growth medium was then replaced with 100 μL of serum free DMEM, cells were then treated with a 10-point titration of compounds disclosed herein. After 1 hour compound treatment, 50 μL of lysis buffer (Cisbio) were added to each well and incubated at room temperature with shaking for 30 minutes. A total of 16 μL of cell lysate from each well of a 96-well plate was transferred to a 384-well small volume white plate. Lysate from each well was incubated with 2 μL of Eu^3+-cryptate (donor) labeled anti-ERK antibody (Cisbio) and 2 μL of D2 (acceptor) labeled anti-phospho-ERK antibody (Cisbio) for 2 hours at room temperature. When donor and acceptor are in close proximity, excitation of the donor with laser triggers a Fluorescence Resonance Energy Transfer (FRET) towards the acceptor, which in turn fluoresces at 655 nm wavelength. Fluorescence values were measured using a BMG reader.
(§3) IC50 values for ERK inhibition were calculated by fitting dose-dependent data to the four-parameter logistic model using GraphPad Prism software.

A further assay deals with p61-A375. Kind of assay: Anti-proliferative activity EC50 assay (CellTiter-Glo) in p61-A375. The class given is cell-based. The settings on record: 72 h; 3-day exposure; read-out: Cell Proliferation EC50 (nM) p61-A375. Here is the method: as §1
The growth-inhibitory activity of compounds in A375 and p61-A375, was determined using CellTiter-Glo luminescent cell viability assay (Promega). The 2,000 cells were seeded per well of a 96-well plate to ensure logarithmic growth could occur over the 3 days treatment period. Cells were left to attach for 16 hours, cells were treated in duplicate with a 10-point dilution series. Following a 3-day exposure to compounds disclosed herein, a volume of CellTiter-Glo reagent equal to the volume of cell culture medium present in each well was added. Mixture was mixed on an orbital shaker for 2 minutes to allow cell lysis, followed by 10 minutes incubation at room temperature to allow stabilization of luminescent signal, which corresponded to quantitation of ATP and thus the quantitation of metabolically active cells. Luminescent signal was measured using Pherastar FS reader (BMG Labtech).
EC50 values for growth inhibition were calculated by fitting dose-dependent data to the four-parameter logistic model using GraphPad Prism software.
For orientation: In ATP-based viability assays light output follows the ATP content of the culture.

For another assay, the system named is HeLa (pERK). Kind of assay: ERK phosphorylation inhibition IC50 assay in HeLa. The class given is cell-based. To be noted: Homo sapiens, 1 hour compound treatment. Here is the method: as §2, §3
The subject of a further assay is A375. Kind of assay: Anti-proliferative activity EC50 assay (CellTiter-Glo) in A375. The class given is cell-based. To be noted: Homo sapiens, A-375, 72 h; 3-day exposure; read-out: Cell Proliferation EC50 (nM) A375. The method, boiled down:
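CellTiter-Glo luminescence (ATP) after 2,000 cells/well attached 16 h, then 3-day exposure to a 10-point dilution series in duplicate. EC50 from four-parameter logistic fit of dose-response data.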

The next assay concerns the target B-Raf (V600E) (Homo sapiens (Human), UniProt P15056, V600E). As to the kind of experiment: Raf IC50 assay, time-resolved fluorescence energy transfer, B-Raf (V600E). The assay is classed as biochemical. The settings on record: 0.1 mM ATP; read-out: IC50 (nM) B_Raf^V600E.
The next assay has as its system Calu-6 (pERK). Kind of assay: ERK phosphorylation inhibition IC50 assay in Calu-6. The class given is cell-based. The settings on record: Homo sapiens, 1 hour compound treatment. Here is the method: as §2, §3
In a further assay the target is wild type B-Raf (Homo sapiens (Human), UniProt P15056). Kind of assay: WT B-Raf IC50 assay, time-resolved fluorescence energy transfer. The assay is classed as biochemical. Here is the method:
The IC50 for each compound was calculated by non linear regression by Graphpad Prism software.

For another assay, the target named is C-Raf (Y340D/Y341D) (Homo sapiens (Human), UniProt P04049, Y340D/Y341D). Kind of assay: Raf IC50 assay, time-resolved fluorescence energy transfer, C-Raf (Y340D/Y341D). The assay is classed as biochemical. The settings on record: 0.1 mM ATP.
Where [1] appears, read: 2.5 mM ATP, read-out: IC50 (nM) B-Raf^WT 2.5 mM ATP.
The mark [2] stands for this setting: Km ATP (2.9 μM ATP), read-out: IC50 (nM) B-Raf^WT Km ATP.

Like-named read-outs stand apart in the source and are kept apart here.

C-Raf (Y340D/Y341D), sequence (P04049 whole entry Y340D/Y341D): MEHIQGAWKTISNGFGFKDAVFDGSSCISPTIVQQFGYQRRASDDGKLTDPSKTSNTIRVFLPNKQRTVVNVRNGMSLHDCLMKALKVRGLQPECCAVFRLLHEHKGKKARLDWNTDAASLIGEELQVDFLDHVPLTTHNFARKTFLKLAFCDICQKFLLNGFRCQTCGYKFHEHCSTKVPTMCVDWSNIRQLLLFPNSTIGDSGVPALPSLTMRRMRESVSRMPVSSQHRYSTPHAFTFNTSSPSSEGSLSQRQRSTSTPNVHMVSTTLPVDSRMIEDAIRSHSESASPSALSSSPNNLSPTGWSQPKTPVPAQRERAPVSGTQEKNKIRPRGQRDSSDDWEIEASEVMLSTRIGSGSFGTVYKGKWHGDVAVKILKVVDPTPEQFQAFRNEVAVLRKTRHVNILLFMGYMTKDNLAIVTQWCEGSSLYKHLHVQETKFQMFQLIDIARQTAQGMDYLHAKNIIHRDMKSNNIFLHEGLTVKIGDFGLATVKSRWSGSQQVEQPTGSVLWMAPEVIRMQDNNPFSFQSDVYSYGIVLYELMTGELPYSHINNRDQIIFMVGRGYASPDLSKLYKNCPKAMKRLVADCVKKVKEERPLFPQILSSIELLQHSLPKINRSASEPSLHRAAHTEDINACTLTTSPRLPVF
wild type B-Raf, sequence (P15056 whole entry): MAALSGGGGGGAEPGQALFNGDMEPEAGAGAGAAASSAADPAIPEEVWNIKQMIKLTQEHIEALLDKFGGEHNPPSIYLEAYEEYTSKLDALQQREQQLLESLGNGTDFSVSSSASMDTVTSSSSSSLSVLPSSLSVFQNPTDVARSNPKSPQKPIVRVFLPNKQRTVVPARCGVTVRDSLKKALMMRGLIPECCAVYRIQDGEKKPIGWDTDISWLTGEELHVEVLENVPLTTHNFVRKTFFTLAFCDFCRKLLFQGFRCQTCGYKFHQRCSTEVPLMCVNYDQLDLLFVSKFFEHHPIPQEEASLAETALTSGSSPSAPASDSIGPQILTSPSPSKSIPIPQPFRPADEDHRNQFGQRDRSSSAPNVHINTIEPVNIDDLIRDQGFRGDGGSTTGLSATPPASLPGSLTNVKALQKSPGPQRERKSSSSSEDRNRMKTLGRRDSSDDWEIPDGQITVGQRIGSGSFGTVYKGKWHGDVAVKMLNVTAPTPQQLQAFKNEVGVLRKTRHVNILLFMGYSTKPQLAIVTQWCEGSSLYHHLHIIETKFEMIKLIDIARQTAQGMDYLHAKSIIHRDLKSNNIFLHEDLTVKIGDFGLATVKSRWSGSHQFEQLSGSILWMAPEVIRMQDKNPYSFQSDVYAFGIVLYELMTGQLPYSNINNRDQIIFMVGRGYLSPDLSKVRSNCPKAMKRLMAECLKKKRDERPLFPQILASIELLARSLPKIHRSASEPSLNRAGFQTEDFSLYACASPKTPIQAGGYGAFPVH
B-Raf (V600E), sequence (P15056 whole entry V600E): as the sequence (P15056 whole entry) above, with V600E counted along it

With `O=C1CCc2c(Oc3ccc4c(c3)[C@H]3[C@H](NC(=O)Nc5cc(F)cc(F)c5)[C@H]3O4)ccnc2N1` [Compound 1.23], the concentration for half-maximal inhibition (IC50) (in general, the concentration that inhibits the measured activity by half) with p61-A375 (pERK) was determined as 253 nM; with HeLa (pERK) it was 189 nM; at B-Raf (V600E) it was 1.8 nM; in the assay with Calu-6 (pERK), 101 nM; on wild type B-Raf (setting [1]) it was 12 nM; on wild type B-Raf (setting [2]), 3.7 nM. In addition, it took 0.3 nM to reach half-maximal inhibition against C-Raf (Y340D/Y341D) (IC50). Moreover, the EC50 in the assay on p61-A375 was 479 nM; in the assay on A375, 109 nM.

`O=C1CCc2c(Oc3ccc4c(c3)[C@H]3[C@H](NC(=O)Nc5ccc(F)c(C(F)(F)F)c5)[C@H]3O4)ccnc2N1` [Compound 1.32]: the IC50 was 433 nM with p61-A375 (pERK); 536 nM in the assay on HeLa (pERK); 7.7 nM on B-Raf (V600E); 301 nM in the assay with Calu-6 (pERK); 58 nM on wild type B-Raf (setting [1]); 17 nM at wild type B-Raf (setting [2]). At C-Raf (Y340D/Y341D), this molecule yielded a half-maximal inhibitory concentration (IC50) of 1.2 nM. The EC50 in the assay on p61-A375 came to 527 nM; in the assay with A375 it was 55 nM.

In the case of `O=C1CCc2c(Oc3ccc4c(c3)[C@H]3[C@H](NC(=O)Nc5ccc(F)cc5F)[C@H]3O4)ccnc2N1` [Compound 1.35], the IC50 in the assay with p61-A375 (pERK) was 314 nM; in the assay with HeLa (pERK), 610 nM; on B-Raf (V600E) it was 0.59 nM; in the assay with Calu-6 (pERK) it was 75 nM; on wild type B-Raf (setting [1]) it was 4.1 nM; on wild type B-Raf (setting [2]), 1 nM. Also, on C-Raf (Y340D/Y341D), the half-maximal inhibitory concentration (IC50) stood at 0.25 nM. The EC50 with p61-A375 came to 1130 nM; in the assay on A375, 143 nM.

As for `O=C1CCc2c(Oc3ccc4c(c3)[C@H]3[C@H](NC(=O)Nc5cc(F)ccc5F)[C@H]3O4)ccnc2N1` [Compound 1.43], the EC50 in the assay on A375 was 96 nM. Moreover, the IC50 at B-Raf (V600E) is 1.2 nM; on wild type B-Raf (setting [1]) it was 5.9 nM; at wild type B-Raf (setting [2]), 2.1 nM; against C-Raf (Y340D/Y341D), 0.26 nM.

With `O=C1CCc2c(Oc3ccc4c(c3)[C@H]3[C@H](NC(=O)Nc5c(F)cccc5F)[C@H]3O4)ccnc2N1` [Compound 1.44], the EC50 in the assay on A375 stood at 702 nM. Further, the figures for the half-maximal inhibitory concentration (IC50) on B-Raf (V600E), on wild type B-Raf (setting [2]) and on C-Raf (Y340D/Y341D) were 1.3 nM, 1.9 nM and 0.21 nM, respectively.

Consider `O=C1CCc2c(Oc3ccc4c(c3)[C@H]3[C@H](NC(=O)Nc5ccc(F)c(F)c5)[C@H]3O4)ccnc2N1` [Compound 1.45], for which the IC50 in the assay on p61-A375 (pERK) came out at 325 nM; with HeLa (pERK) it was 265 nM; on B-Raf (V600E) it was 1.1 nM; in the assay on Calu-6 (pERK), 84 nM; on wild type B-Raf (setting [1]) it was 6.7 nM; at wild type B-Raf (setting [2]), 2.7 nM. The molecule further returned an IC50 on C-Raf (Y340D/Y341D) of 0.3 nM. In addition, the EC50 was 645 nM in the assay on p61-A375 and 32 nM with A375.

Turning to `O=C1CCc2c(Oc3ccc4c(c3)[C@H]3[C@H](NC(=O)Nc5ccc(F)c(F)c5F)[C@H]3O4)ccnc2N1` [Compound 1.46], the EC50 with A375 turned out to be 109 nM. The IC50 on B-Raf (V600E) is 0.78 nM; at wild type B-Raf (setting [1]), 6 nM; on wild type B-Raf (setting [2]), 1.7 nM; against C-Raf (Y340D/Y341D) it was 0.22 nM.

For `O=C1CCc2c(Oc3ccc4c(c3)[C@H]3[C@H](NC(=O)Nc5cc(F)c(F)c(F)c5)[C@H]3O4)ccnc2N1` [Compound 1.47], the EC50 in the assay with A375 turned out to be 140 nM. Besides, the IC50 turned out to be 4.1 nM on B-Raf (V600E), 23 nM on wild type B-Raf (setting [1]), 6.4 nM on wild type B-Raf (setting [2]) and 0.53 nM against C-Raf (Y340D/Y341D).

Consider `O=C1CCc2c(Oc3ccc4c(c3)[C@H]3[C@H](NC(=O)Nc5cc(F)c(F)cc5F)[C@H]3O4)ccnc2N1` [Compound 1.49], for which the 50% inhibitory concentration (IC50) in the assay with p61-A375 (pERK) was 153 nM; in the assay with HeLa (pERK), 498 nM; on B-Raf (V600E), 1.2 nM; in the assay on Calu-6 (pERK), 112 nM; on wild type B-Raf (setting [1]) it was 7.9 nM; at wild type B-Raf (setting [2]), 2.5 nM. At C-Raf (Y340D/Y341D), this molecule showed an IC50 of 0.19 nM. Moreover, the EC50 with p61-A375 came out at 639 nM; in the assay on A375, 17 nM.

For `O=C1CCc2c(Oc3ccc4c(c3)[C@H]3[C@H](NC(=O)NC5CCCCCC5)[C@H]3O4)ccnc2N1` [Compound 1.52], the half-maximal inhibitory concentration (IC50) in the assay on p61-A375 (pERK) was 173 nM; in the assay with HeLa (pERK) it was 5430 nM; on B-Raf (V600E) it was 1.4 nM; with Calu-6 (pERK), 411 nM; on wild type B-Raf (setting [2]), 1.7 nM; at C-Raf (Y340D/Y341D), 0.25 nM. In addition, the EC50 with A375 is 47.7 nM.

For the molecule `O=C1CCc2c(Oc3ccc4c(c3)[C@H]3[C@H](NC(=O)Nc5cc(F)cc(F)c5F)[C@H]3O4)ccnc2N1` [Compound 1.53], the figures for the EC50 with p61-A375 and with A375 were 1320 nM and 77 nM, respectively. Besides, the IC50 at B-Raf (V600E) is 2.9 nM.

For `O=C1CCc2c(Oc3ccc4c(c3)[C@H]3[C@H](NC(=O)NC5CCCCC5)[C@H]3O4)ccnc2N1` [Compound 1.66], in the assay on A375, the EC50 was found to be 101 nM. Also, the figures for the IC50 on B-Raf (V600E), at wild type B-Raf (setting [2]) and at C-Raf (Y340D/Y341D) were 2.3 nM, 2.3 nM and 0.25 nM, respectively.

In the case of `CCN1CCN(Cc2ccc(NC(=O)N[C@@H]3[C@H]4Oc5ccc(Oc6ccnc7c6CCC(=O)N7)cc5[C@@H]34)cc2C(F)(F)F)CC1` [Compound 1.73, 1-(4-((4-ethylpiperazin-1-yl)methyl)-3-(trifluoromethyl)phenyl)-3-((1S,1aS,6bS)-5-((7-oxo-5,6,7,8-tetrahydro-1,8-naphthyridin-4-yl)oxy)-1a,6b-dihydro-1H-cyclopropa[b]benzofuran-1-yl)urea], the EC50 in the assay on A375 stood at 1330 nM. Also, the IC50 was determined as 13 nM at B-Raf (V600E), 13 nM at wild type B-Raf (setting [2]) and 0.84 nM at C-Raf (Y340D/Y341D).

`COc1cc(NC(=O)N[C@@H]2[C@H]3Oc4ccc(Oc5ccnc6c5CCC(=O)N6)cc4[C@@H]23)ccn1` [Compound 1.75, 1-(2-methoxypyridin-4-yl)-3-((1S,1aS,6bS)-5-((7-oxo-5,6,7,8-tetrahydro-1,8-naphthyridin-4-yl)oxy)-1a,6b-dihydro-1H-cyclopropa[b]benzofuran-1-yl)urea]: in the assay on A375, the EC50 was 405 nM. The IC50 was 2.2 nM at B-Raf (V600E), 2.4 nM on wild type B-Raf (setting [2]) and 0.27 nM at C-Raf (Y340D/Y341D).

For `CCCS(=O)(=O)Nc1ccc(F)c(C(=O)c2c[nH]c3ncc(-c4ccc(Cl)cc4)cc23)c1F` [Vemurafenib, reference compound], the IC50 in the assay with p61-A375 (pERK) is over 10000 nM; in the assay on HeLa (pERK), 5820 nM; in the assay with Calu-6 (pERK), over 10000 nM. Moreover, the values for the EC50 in the assay with p61-A375 and in the assay with A375 were over 10000 nM and 178 nM, respectively.

The values above are taken from US9670203B2 (BeiGene, LTD., priority 2013, dated 2017).
